Key:
P2X purinoceptor 7 [1] = target: T1, P2X purinoceptor 7 (Homo sapiens, UniProt Q99572); test: Inhibition of human P2X7 receptor
T1 sequence (Q99572 whole entry): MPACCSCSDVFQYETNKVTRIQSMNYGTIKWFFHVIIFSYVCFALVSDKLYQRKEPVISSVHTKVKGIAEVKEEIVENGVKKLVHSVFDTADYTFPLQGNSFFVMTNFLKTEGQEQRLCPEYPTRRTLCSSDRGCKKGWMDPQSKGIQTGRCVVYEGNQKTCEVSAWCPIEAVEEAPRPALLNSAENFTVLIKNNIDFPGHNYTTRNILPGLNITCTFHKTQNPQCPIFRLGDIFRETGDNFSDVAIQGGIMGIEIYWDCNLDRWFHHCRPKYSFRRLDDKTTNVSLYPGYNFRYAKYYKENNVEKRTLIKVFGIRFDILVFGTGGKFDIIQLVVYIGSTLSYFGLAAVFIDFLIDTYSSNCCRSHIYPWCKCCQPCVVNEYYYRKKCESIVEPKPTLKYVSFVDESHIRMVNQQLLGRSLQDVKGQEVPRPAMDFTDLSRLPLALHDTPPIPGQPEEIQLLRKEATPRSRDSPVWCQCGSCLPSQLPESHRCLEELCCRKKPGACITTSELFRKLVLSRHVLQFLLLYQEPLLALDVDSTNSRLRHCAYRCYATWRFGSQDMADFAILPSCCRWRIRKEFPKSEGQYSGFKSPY

[2] = Inhibition of rhesus macaque P2X7 receptor; set-up: species or system Macaca mulatta
P2X purinoceptor 7 [3] = target: T2, P2X purinoceptor 7 (Rattus norvegicus, UniProt Q64663); test: Inhibition of rat P2X7 receptor
T2 sequence (Q64663 whole entry): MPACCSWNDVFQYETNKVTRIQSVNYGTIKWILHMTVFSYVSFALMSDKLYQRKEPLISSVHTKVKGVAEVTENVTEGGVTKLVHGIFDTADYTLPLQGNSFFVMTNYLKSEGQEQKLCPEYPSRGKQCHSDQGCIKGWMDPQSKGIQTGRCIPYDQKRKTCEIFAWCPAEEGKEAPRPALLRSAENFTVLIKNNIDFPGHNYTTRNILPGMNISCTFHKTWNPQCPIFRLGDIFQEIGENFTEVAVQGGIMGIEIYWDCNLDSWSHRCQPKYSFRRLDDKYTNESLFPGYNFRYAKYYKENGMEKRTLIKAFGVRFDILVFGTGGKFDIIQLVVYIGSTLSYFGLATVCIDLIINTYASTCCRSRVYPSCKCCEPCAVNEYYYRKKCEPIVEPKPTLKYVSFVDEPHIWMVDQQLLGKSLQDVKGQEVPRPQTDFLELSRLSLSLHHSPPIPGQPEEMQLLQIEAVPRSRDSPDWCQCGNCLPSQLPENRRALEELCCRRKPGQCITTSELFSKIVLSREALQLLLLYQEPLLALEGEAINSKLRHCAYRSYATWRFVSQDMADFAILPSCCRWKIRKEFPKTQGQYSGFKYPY

P2X7 purinoceptor = target: T3, P2X7 purinoceptor (Canis lupus familiaris, UniProt Q64F92); test: Inhibition of dog P2X7 receptor
T3 sequence (Q64F92 whole entry): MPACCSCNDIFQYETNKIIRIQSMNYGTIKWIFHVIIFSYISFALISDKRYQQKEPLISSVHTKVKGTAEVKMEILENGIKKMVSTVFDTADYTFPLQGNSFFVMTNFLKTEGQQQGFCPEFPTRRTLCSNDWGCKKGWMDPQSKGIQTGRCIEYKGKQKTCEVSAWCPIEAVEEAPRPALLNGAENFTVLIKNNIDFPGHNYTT

P2X purinoceptor = target: T4, P2X purinoceptor (Cavia porcellus, UniProt A9QW74); test: Inhibition of guinea pig P2X7 receptor
T4 sequence (A9QW74 whole entry): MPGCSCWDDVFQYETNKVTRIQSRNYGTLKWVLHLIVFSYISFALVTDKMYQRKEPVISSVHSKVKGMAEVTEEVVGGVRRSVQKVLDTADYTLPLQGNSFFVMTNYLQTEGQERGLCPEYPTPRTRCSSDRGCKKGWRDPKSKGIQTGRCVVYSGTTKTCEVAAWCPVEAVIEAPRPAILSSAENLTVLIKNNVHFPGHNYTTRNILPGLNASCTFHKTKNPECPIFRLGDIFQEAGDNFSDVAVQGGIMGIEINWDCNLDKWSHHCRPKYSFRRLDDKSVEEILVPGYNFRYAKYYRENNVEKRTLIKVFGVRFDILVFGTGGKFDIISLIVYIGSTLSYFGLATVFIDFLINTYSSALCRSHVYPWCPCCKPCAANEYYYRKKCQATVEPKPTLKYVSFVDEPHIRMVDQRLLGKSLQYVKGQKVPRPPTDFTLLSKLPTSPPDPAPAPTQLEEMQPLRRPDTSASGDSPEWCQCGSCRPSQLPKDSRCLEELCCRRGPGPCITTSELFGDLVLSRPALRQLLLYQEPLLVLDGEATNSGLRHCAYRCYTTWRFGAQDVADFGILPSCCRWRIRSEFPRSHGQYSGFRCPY

| Structure (SMILES) | IC50 (P2X purinoceptor 7 [1]) [nM] | IC50 [2] [nM] | IC50 (P2X purinoceptor 7 [3]) [µM] | IC50 (P2X7 purinoceptor) [nM] | IC50 (P2X purinoceptor) [nM] |
| --- | --- | --- | --- | --- | --- |
| O=C1CSC(=O)N1C(CCc1ccncc1)COc1ccc(-c2cccc([N+](=O)[O-])c2)cc1 (stereo not given) | 31 | 23 | > 100 | – | – |
| CN([C@@H](Cc1ccc(OS(=O)(=O)c2cccc3cnccc23)cc1)C(=O)N1CCN(c2ccccc2)CC1)S(=O)(=O)c1cccc2cnccc12 | 100 | 86 | > 100 | 10 | 130 |
| C[S+]([O-])c1ccc(-c2nc(-c3ccncc3)c(-c3ccc(F)cc3)[nH]2)cc1 (stereo not given) [SB-203580] | 5000 | – | > 30 | – | – |

— ChEMBL document CHEMBL3600345, “Docking of competitive inhibitors to the P2X7 receptor family reveals key differences responsible for changes in response between rat and human” (Bioorg Med Chem Lett, 2015)
